Source: article PMC6544337, “Development of chimeric and bifunctional antagonists for CLR/RAMP receptors” (PLoS ONE, 2019)

Assays:
Type in all cases: cell-based
CLR/RAMP2 [1] = target: T1, CLR/RAMP2 (Homo sapiens, UniProt O60895+Q16602); test: CLR/RAMP2 PathHunter β-arrestin assay, antagonist mode (ADM challenge at EC80); conditions: for Emax: maximum inhibition of ADM-mediated signaling, in % of a positive control, read-out: CLR/RAMP2 Max Activity % of control (antagonistic); for IC50: inhibition of ADM-mediated signaling, CHO-K1 cells, pre-incubation with antagonist, then agonist at EC80, β-arrestin read-out
T1 sequence (Q16602 23-461): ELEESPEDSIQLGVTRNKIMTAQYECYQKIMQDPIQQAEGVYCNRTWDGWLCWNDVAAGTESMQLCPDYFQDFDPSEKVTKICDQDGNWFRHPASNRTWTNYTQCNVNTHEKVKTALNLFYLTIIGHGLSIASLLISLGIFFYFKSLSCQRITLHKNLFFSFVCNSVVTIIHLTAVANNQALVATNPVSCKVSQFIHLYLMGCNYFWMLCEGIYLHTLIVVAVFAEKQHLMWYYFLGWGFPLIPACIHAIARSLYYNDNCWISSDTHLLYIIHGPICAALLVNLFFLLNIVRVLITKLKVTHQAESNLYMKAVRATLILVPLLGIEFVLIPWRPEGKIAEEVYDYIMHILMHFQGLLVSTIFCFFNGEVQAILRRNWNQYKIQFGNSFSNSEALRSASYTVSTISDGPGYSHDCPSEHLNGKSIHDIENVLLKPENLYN
T1 sequence (O60895 43-175): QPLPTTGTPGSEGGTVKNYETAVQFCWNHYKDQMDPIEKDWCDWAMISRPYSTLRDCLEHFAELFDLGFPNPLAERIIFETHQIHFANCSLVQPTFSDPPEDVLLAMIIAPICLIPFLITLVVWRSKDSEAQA
Description: (§1) The bioactivity of synthetic analogs was studied using cells that stably express CLR/RAMP1 (1321N1 cells) or CLR/RAMP2 (CHO-K1 cells) receptors using CLR/RAMP1 cAMP and CLR/RAMP2 arrestin assays from DiscoveRx (Fremont, Ca). In receptor-activation assays, the dose-dependent stimulatory response was studied in duplicate, at 10 different concentrations.
(§2) The CLR/RAMP2 signaling was assayed using the CLR/RAMP2 PathHunter β-Arrestin assay. In this assay, the GPCR was fused in frame with a small enzyme donor fragment ProLink (PK) and co-expressed in cells stably expressing a fusion protein of β-arrestin and an N-terminal deletion mutant of β-galactosidase (i.e., enzyme acceptor or EA). Activation of the CLR/RAMP2 stimulates binding of β-arrestin to the PK-tagged receptor and leads to an increase in enzyme activity that can be measured using chemiluminescent PathHunter Detection Reagents. PathHunter cell lines were seeded in white walled, 384-well microplates and incubated at 37C prior to testing. For agonist determination, intermediate dilution of sample stocks was performed to generate 5X sample in assay buffer, and 5 μl of 5X sample was added to cells and incubated at 37C for 90 minutes. Vehicle concentration was 1%. For antagonistic activity determination, cells were pre-incubated with antagonist followed by agonist challenge at the EC80 concentration.

CLR/RAMP1 [2] = target: T2, CLR/RAMP1 (Homo sapiens, UniProt O60894+Q16602); test: CLR/RAMP1 cAMP assay, antagonist mode (CGRP challenge at EC80); conditions: for Emax: maximum inhibition of CGRP-mediated signaling, in % of a positive control, read-out: CLR/RAMP1 Max Activity % of control (antagonistic)
T2 sequence (Q16602 23-461): as the sequence (Q16602 23-461) above
T2 sequence (O60894 27-148): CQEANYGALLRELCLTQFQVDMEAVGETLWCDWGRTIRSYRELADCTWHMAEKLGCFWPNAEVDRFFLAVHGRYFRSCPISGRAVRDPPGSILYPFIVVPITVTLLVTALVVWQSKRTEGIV

CLR/RAMP2 [3] = target: T1, CLR/RAMP2; test: CLR/RAMP2 PathHunter β-arrestin assay, agonist mode; conditions: agonist mode; positive control ADM; CHO-K1 cells
Description: as §1, §2

CLR/RAMP1 [4] = target: T2, CLR/RAMP1; test: CLR/RAMP1 cAMP assay, agonist mode (DiscoveRx HitHunter cAMP XS+); conditions: agonist mode; positive control CGRP; 1321N1 cells
Description: as §1
For the analysis of signaling in CLR/RAMP1-expressing cells, cAMP Hunter cell lines were expanded from freezer stocks, and cells were seeded in white walled, 384-well microplates and incubated at 37C for the appropriate time. The activity was determined using the DiscoveRx HitHunter cAMP XS+ assay. Media was aspirated from cells and replaced with 15 μl 2:1 HBSS/10mM Hepes:cAMP XS+ Ab reagent. Intermediate dilution of sample stocks was performed to generate 4X sample in assay buffer, and 5 μl of 4X sample was added to cells and incubated at 37C or room temperature for the appropriate time. Vehicle concentration was 1%.
Microplates were read with a PerkinElmer instrument for chemiluminescent signal detection.

Row | Compound | Emax (CLR/RAMP2 [1]) [%] | IC50 (CLR/RAMP1 [2]) [nM] | Emax (CLR/RAMP1 [2]) [%] | IC50 (CLR/RAMP2 [1]) [nM] | CLR/RAMP1 Max Activity % of control (CLR/RAMP1 [4]) | CLR/RAMP2 Max Activity % of control (CLR/RAMP2 [3])
1 | NCCCC[C@H](NC(=O)[C@@H](Cc1cc(Br)c(O)c(Br)c1)NC(=O)N1CCC(N2Cc3ccccc3NC2=O)CC1)C(=O)N1CCN(c2ccncc2)CC1 [BIBN4096, reference compound] | 0 | – | – | – | – | –
2 | CCCCCCCCCCCCCCCC(=O)N[C@H](C(=O)N[C@H](C(=O)N[C@@H](CCC(N)=O)C(=O)N[C@@H](CCCCN)C(=O)N[C@@H](CC(C)C)C(=O)N[C@@H](C)C(=O)N[C@@H](Cc1c[nH]cn1)C(=O)N[C@@H](CCC(N)=O)C(=O)N[C@H](C(=O)N[C@@H](Cc1ccc(O)cc1)C(=O)N[C@@H](CCC(N)=O)C(=O)N[C@@H](Cc1ccccc1)C(=O)N[C@H](C(=O)N[C@@H](CC(=O)O)C(=O)N[C@@H](CCCCN)C(=O)N[C@@H](CC(=O)O)C(=O)N[C@@H](CCCCN)C(=O)N[C@@H](CC(=O)O)C(=O)N[C@@H](CC(N)=O)C(=O)N[C@@H](CO)C(=O)N[C@@H](C)C(=O)N1CCC[C@H]1C(=O)N[C@H](C(=O)N[C@@H](CC(=O)O)C(=O)N1CCC[C@H]1C(=O)N[C@@H](CO)C(=O)N[C@@H](CO)C(=O)N1CCC[C@H]1C(=O)N[C@@H](Cc1c[nH]cn1)C(=O)N[C@@H](CO)C(=O)N[C@@H](Cc1ccc(O)cc1)C(N)=O)C(C)C)[C@@H](C)O)[C@@H](C)CC)C(C)C)[C@@H](C)O [Antagonist 1–1] | 100 | – | – | – | – | –
3 | CC[C@H](C)[C@H](NC(=O)[C@H](CCC(N)=O)NC(=O)[C@H](Cc1c[nH]cn1)NC(=O)[C@H](C)NC(=O)[C@H](CC(C)C)NC(=O)[C@H](CCCCN)NC(=O)[C@H](CCC(N)=O)NC(=O)[C@@H](NC(=O)[C@@H](N)[C@@H](C)O)C(C)C)C(=O)N[C@@H](Cc1ccc(O)cc1)C(=O)N[C@@H](CCC(N)=O)C(=O)N[C@@H](Cc1ccccc1)C(=O)N[C@H](C(=O)N[C@@H](CC(=O)O)C(=O)N[C@@H](CCCCN)C(=O)N[C@@H](CC(=O)O)C(=O)N[C@@H](CCCCN)C(=O)N[C@@H](CC(=O)O)C(=O)N[C@@H](CC(N)=O)C(=O)N[C@H](C(=O)N[C@@H](C)C(=O)N1CCC[C@H]1C(=O)N[C@@H](CCCNC(=N)N)C(=O)N[C@@H](CO)C(=O)N[C@@H](CCCCN)C(=O)N[C@H](C(=O)N[C@@H](CO)C(=O)N1CCC[C@H]1C(=O)N[C@@H](CCC(N)=O)C(=O)NCC(=O)N[C@@H](Cc1ccc(O)cc1)C(N)=O)[C@@H](C)CC)C(C)C)[C@@H](C)O [ADM22-52, reference compound] | 105 | 6600 | 57 | 256 | – | –
4 | CCCCCCCCCCCCCCCC(=O)NCC(=O)N[C@H]1CSSC[C@@H](C(=O)N[C@H](C(=O)N[C@H](C(=O)N[C@@H](CCC(N)=O)C(=O)N[C@@H](CCCCN)C(=O)N[C@@H](CC(C)C)C(=O)N[C@@H](C)C(=O)N[C@@H](Cc2c[nH]cn2)C(=O)N[C@@H](CCC(N)=O)C(=O)N[C@H](C(=O)N[C@@H](Cc2ccc(O)cc2)C(=O)N[C@@H](CCC(N)=O)C(=O)N[C@@H](Cc2ccccc2)C(=O)N[C@H](C(=O)N[C@@H](CC(=O)O)C(=O)N[C@@H](CCCCN)C(=O)N[C@@H](CC(=O)O)C(=O)N[C@@H](CCCCN)C(=O)N[C@@H](CC(=O)O)C(=O)N[C@@H](CC(N)=O)C(=O)N[C@H](C(=O)N[C@@H](C)C(=O)N2CCC[C@H]2C(=O)N[C@@H](CCCNC(=N)N)C(=O)N[C@@H](CO)C(=O)N[C@@H](CCCCN)C(=O)N[C@H](C(=O)N[C@@H](CO)C(=O)N2CCC[C@H]2C(=O)N[C@@H](CCC(N)=O)C(=O)NCC(=O)N[C@@H](Cc2ccc(O)cc2)C(N)=O)[C@@H](C)CC)C(C)C)[C@@H](C)O)[C@@H](C)CC)C(C)C)[C@@H](C)O)NC(=O)[C@H]([C@@H](C)O)NC(=O)CNC(=O)[C@H](Cc2ccccc2)NC(=O)[C@H](CCCNC(=N)N)NC1=O [Agonist 3] | – | – | – | – | – | 78 % of control

The next lines start with results.

Row | Emax (CLR/RAMP2 [1]) [%] | IC50 (CLR/RAMP1 [2]) [nM] | Emax (CLR/RAMP1 [2]) [%] | IC50 (CLR/RAMP2 [1]) [nM] | CLR/RAMP1 Max Activity % of control (CLR/RAMP1 [4]) | Compound | CLR/RAMP2 Max Activity % of control (CLR/RAMP2 [3])
5 | 101 | 1120 | 106 | 289 | – | CC[C@H](C)[C@H](NC(=O)[C@H](CCC(N)=O)NC(=O)[C@H](Cc1c[nH]cn1)NC(=O)[C@H](C)NC(=O)[C@H](CC(C)C)NC(=O)[C@H](CCCCN)NC(=O)[C@H](CCC(N)=O)NC(=O)[C@@H](NC(=O)[C@@H](N)[C@@H](C)O)C(C)C)C(=O)N[C@@H](Cc1ccc(O)cc1)C(=O)N[C@@H](CCC(N)=O)C(=O)N[C@@H](Cc1ccccc1)C(=O)N[C@H](C(=O)N[C@@H](CC(=O)O)C(=O)N[C@@H](CCCCN)C(=O)N[C@@H](CC(=O)O)C(=O)N[C@@H](CCCCN)C(=O)N[C@@H](CC(=O)O)C(=O)N[C@@H](CC(N)=O)C(=O)N[C@@H](CO)C(=O)N[C@@H](C)C(=O)N1CCC[C@H]1C(=O)N[C@H](C(=O)N[C@@H](CC(=O)O)C(=O)N1CCC[C@H]1C(=O)N[C@@H](CO)C(=O)N[C@@H](CO)C(=O)N1CCC[C@H]1C(=O)N[C@@H](Cc1c[nH]cn1)C(=O)N[C@@H](CO)C(=O)N[C@@H](Cc1ccc(O)cc1)C(N)=O)C(C)C)[C@@H](C)O [Antagonist 1–4] | –
6 | 100 | 1880 | 99 | 117 | – | CC[C@H](C)[C@H](NC(=O)[C@H](CCCCN)NC(=O)[C@H](CO)NC(=O)[C@H](CCCNC(=N)N)NC(=O)[C@@H]1CCCN1C(=O)[C@H](C)NC(=O)[C@@H](NC(=O)[C@H](CC(N)=O)NC(=O)[C@H](CC(=O)O)NC(=O)[C@H](CCCCN)NC(=O)[C@H](CC(=O)O)NC(=O)[C@H](CCCCN)NC(=O)[C@H](CC(=O)O)NC(=O)[C@@H](NC(=O)[C@H](Cc1ccccc1)NC(=O)[C@H](CCCNC(=N)N)NC(=O)[C@H](CO)NC(=O)[C@H](CC(C)C)NC(=O)[C@H](CC(C)C)NC(=O)CNC(=O)[C@H](C)NC(=O)[C@H](CC(C)C)NC(=O)[C@H](CCCNC(=N)N)NC(=O)[C@H](Cc1c[nH]cn1)NC(=O)[C@@H](NC(=O)[C@@H](N)C(C)C)[C@@H](C)O)[C@@H](C)O)C(C)C)C(=O)N[C@@H](CO)C(=O)N1CCC[C@H]1C(=O)N[C@@H](CCC(N)=O)C(=O)NCC(=O)N[C@@H](Cc1ccc(O)cc1)C(N)=O [Antagonist 1–5] | –
7 | – | – | – | – | 103 % of control | CSCC[C@H](NC(=O)CNC(=O)CNC(=O)[C@H](CO)NC(=O)[C@H](CCCNC(=N)N)NC(=O)[C@H](CO)NC(=O)[C@H](CC(C)C)NC(=O)[C@H](CC(C)C)NC(=O)CNC(=O)[C@H](C)NC(=O)[C@H](CC(C)C)NC(=O)[C@H](CCCNC(=N)N)NC(=O)[C@H](Cc1c[nH]cn1)NC(=O)[C@@H](NC(=O)[C@@H](NC(=O)[C@@H]1CSSC[C@H](NC(=O)[C@H](C)N)C(=O)N[C@@H](CC(N)=O)C(=O)N[C@@H]([C@@H](C)O)C(=O)N[C@@H](C)C(=O)N[C@@H]([C@@H](C)O)C(=O)N1)C(C)C)[C@@H](C)O)C(=O)N[C@H](C(=O)N[C@@H](CCCCN)C(=O)N[C@@H](CO)C(=O)N[C@@H](CC(N)=O)C(=O)N[C@@H](Cc1ccccc1)C(=O)N[C@H](C(=O)N1CCC[C@H]1C(=O)N[C@H](C(=O)N[C@@H](CC(N)=O)C(=O)N[C@H](C(=O)NCC(=O)N[C@@H](CO)C(=O)N[C@@H](CCCCN)C(=O)N[C@@H](C)C(=O)N[C@@H](Cc1ccccc1)C(N)=O)C(C)C)[C@@H](C)O)C(C)C)C(C)C [CGRP, calcitonin gene-related peptide] | –
8 | 101 | 152 | 101 | 7.3 | – | CC[C@H](C)[C@H](NC(=O)[C@H](CCCCN)NC(=O)[C@H](CO)NC(=O)[C@H](CCCNC(=N)N)NC(=O)[C@@H]1CCCN1C(=O)[C@H](C)NC(=O)[C@@H](NC(=O)[C@H](CC(N)=O)NC(=O)[C@H](CC(=O)O)NC(=O)[C@H](CCCCN)NC(=O)[C@H](CC(=O)O)NC(=O)[C@@H]1CCCN1C(=O)CNC(=O)[C@H](CCSC)NC(=O)[C@H](CC(C)C)NC(=O)[C@H](CCC(N)=O)NC(=O)[C@H](Cc1c[nH]c2ccccc12)NC(=O)[C@H](CC(C)C)NC(=O)[C@H](CCCNC(=N)N)NC(=O)[C@H](Cc1c[nH]cn1)NC(=O)[C@H](C)NC(=O)[C@H](CC(C)C)NC(=O)[C@H](CCCCN)NC(=O)[C@H](CCC(N)=O)NC(=O)[C@@H](NC(=O)[C@@H](N)[C@@H](C)O)C(C)C)C(C)C)C(=O)N[C@@H](CO)C(=O)N1CCC[C@H]1C(=O)N[C@@H](CCC(N)=O)C(=O)NCC(=O)N[C@@H](Cc1ccc(O)cc1)C(N)=O [Antagonist 1–6] | –
